Source: PubChem BioAssay (NCI)
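Interpolation was linear, between the two tested concentrations surrounding the appropriate level; five concentrations were tested over 48 hours in 96-well plates. Abbreviation: GI50, concentration required for 50% inhibition of growth. Definition used: TGI = concentration required for complete inhibition of growth.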

Key:
Assay in all cases: inhibition of tumour cell growth, NCI panel, 48 h
OVCAR-5 ovarian = tested on: OVCAR-5 ovarian
NCI-H226 lung = tested on: NCI-H226 lung
SK-OV-3 ovarian = tested on: SK-OV-3 ovarian
CCRF-CEM leukemia = tested on: CCRF-CEM leukemia
HCT-15 colon = tested on: HCT-15 colon
NCI-H23 lung = tested on: NCI-H23 lung
NCI-H522 lung = tested on: NCI-H522 lung
MDA-MB-231 breast = tested on: MDA-MB-231 breast
UO-31 renal = tested on: UO-31 renal
U251 CNS = tested on: U251 CNS
UACC-62 melanoma = tested on: UACC-62 melanoma
IGROV1 ovarian = tested on: IGROV1 ovarian
T-47D breast = tested on: T-47D breast
NCI/ADR-RES ovarian = tested on: NCI/ADR-RES ovarian
MOLT-4 leukemia = tested on: MOLT-4 leukemia
A498 renal = tested on: A498 renal
HCT-116 colon = tested on: HCT-116 colon
HT29 colon = tested on: HT29 colon
SN12C renal = tested on: SN12C renal
LOX IMVI melanoma = tested on: LOX IMVI melanoma
M14 melanoma = tested on: M14 melanoma
MCF7 breast = tested on: MCF7 breast
HS 578T breast = tested on: HS 578T breast
SNB-75 CNS = tested on: SNB-75 CNS
ACHN renal = tested on: ACHN renal
HL-60(TB) leukemia = tested on: HL-60(TB) leukemia
SF-268 CNS = tested on: SF-268 CNS
OVCAR-3 ovarian = tested on: OVCAR-3 ovarian
K-562 leukemia = tested on: K-562 leukemia
SK-MEL-28 melanoma = tested on: SK-MEL-28 melanoma
A549 NSCLC = tested on: A549 NSCLC
TK-10 renal = tested on: TK-10 renal
SNB-19 CNS = tested on: SNB-19 CNS
PC-3 prostate = tested on: PC-3 prostate
EKVX NSCLC = tested on: EKVX NSCLC
SW-620 colon = tested on: SW-620 colon
UACC-257 melanoma = tested on: UACC-257 melanoma
CAKI-1 renal = tested on: CAKI-1 renal
SK-MEL-2 melanoma = tested on: SK-MEL-2 melanoma
SF-539 CNS = tested on: SF-539 CNS
OVCAR-8 ovarian = tested on: OVCAR-8 ovarian
BT-549 breast = tested on: BT-549 breast
786-0 renal = tested on: 786-0 renal
HOP-92 NSCLC = tested on: HOP-92 NSCLC
MALME-3M melanoma = tested on: MALME-3M melanoma
DU-145 prostate = tested on: DU-145 prostate
SK-MEL-5 melanoma = tested on: SK-MEL-5 melanoma
COLO 205 colon = tested on: COLO 205 colon
MDA-MB-435 = tested on: MDA-MB-435
NCI-H460 lung = tested on: NCI-H460 lung
SF-295 CNS = tested on: SF-295 CNS
OVCAR-4 ovarian = tested on: OVCAR-4 ovarian
KM12 colon = tested on: KM12 colon
HOP-62 NSCLC = tested on: HOP-62 NSCLC
HCC-2998 colon = tested on: HCC-2998 colon
RPMI-8226 leukemia = tested on: RPMI-8226 leukemia
RXF 393 renal = tested on: RXF 393 renal
SR leukemia = tested on: SR leukemia

## O=C1/C(=C/c2ccc(F)cc2)CN(C(=O)C(Cl)Cl)C/C1=C\c1ccc(F)cc1
OVCAR-5 ovarian
  GI50: 323 nM
  TGI: 1100 nM
NCI-H226 lung
  GI50: 4220 nM
  TGI: 22500 nM
SK-OV-3 ovarian
  GI50: 884 nM
  TGI: 2200 nM
CCRF-CEM leukemia
  GI50: 136 nM
  TGI: > 24200 nM
HCT-15 colon
  GI50: 145 nM
  TGI: 682 nM
NCI-H23 lung
  GI50: 259 nM
  TGI: 774 nM
NCI-H522 lung
  GI50: 1500 nM
  TGI: 3270 nM
MDA-MB-231 breast
  GI50: 323 nM
  TGI: 1090 nM
UO-31 renal
  GI50: 163 nM
  TGI: 327 nM
U251 CNS
  GI50: 106 nM
  TGI: 335 nM
UACC-62 melanoma
  GI50: 237 nM
  TGI: 641 nM
IGROV1 ovarian
  GI50: 188 nM
  TGI: 410 nM
T-47D breast
  GI50: 702 nM
  TGI: 3600 nM
NCI/ADR-RES ovarian
  GI50: 327 nM
  TGI: 1710 nM
MOLT-4 leukemia
  GI50: 309 nM
  TGI: > 100000 nM
A498 renal
  GI50: 404 nM
  TGI: 1540 nM
HCT-116 colon
  GI50: 67.3 nM
  TGI: 215 nM
HT29 colon
  GI50: 181 nM
SN12C renal
  GI50: 222 nM
  TGI: 556 nM
LOX IMVI melanoma
  GI50: 34.6 nM
  TGI: 97.4 nM
M14 melanoma
  GI50: 249 nM
  TGI: 758 nM
MCF7 breast
  GI50: 112 nM
  TGI: 1090 nM
HS 578T breast
  GI50: 325 nM
  TGI: 1370 nM
SNB-75 CNS
  GI50: 1450 nM
  TGI: 2930 nM
ACHN renal
  GI50: 240 nM
  TGI: 603 nM
HL-60(TB) leukemia
  GI50: 229 nM
  TGI: 1550 nM
SF-268 CNS
  GI50: 328 nM
  TGI: 1470 nM
OVCAR-3 ovarian
  GI50: 262 nM
  TGI: 778 nM
K-562 leukemia
  GI50: 53.3 nM
  TGI: > 100000 nM
SK-MEL-28 melanoma
  GI50: 257 nM
  TGI: 666 nM
A549 NSCLC
  GI50: 324 nM
  TGI: 1380 nM
TK-10 renal
  GI50: 670 nM
  TGI: 1960 nM
SNB-19 CNS
  GI50: 287 nM
  TGI: 1250 nM
PC-3 prostate
  GI50: 250 nM
  TGI: 818 nM
EKVX NSCLC
  GI50: 393 nM
  TGI: 1460 nM
SW-620 colon
  GI50: 36.5 nM
  TGI: 119 nM
UACC-257 melanoma
  GI50: 450 nM
  TGI: 1620 nM
CAKI-1 renal
  GI50: 309 nM
  TGI: 1080 nM
SK-MEL-2 melanoma
  GI50: 940 nM
  TGI: 2900 nM
SF-539 CNS
  GI50: 269 nM
  TGI: 791 nM
OVCAR-8 ovarian
  GI50: 295 nM
  TGI: 1640 nM
BT-549 breast
  GI50: 253 nM
  TGI: 810 nM
786-0 renal
  GI50: 213 nM
  TGI: 499 nM
HOP-92 NSCLC
  GI50: 1310 nM
  TGI: 3130 nM
MALME-3M melanoma
  GI50: 212 nM
  TGI: 528 nM
DU-145 prostate
  GI50: 671 nM
  TGI: 1740 nM
SK-MEL-5 melanoma
  GI50: 366 nM
  TGI: 1010 nM
COLO 205 colon
  GI50: 353 nM
  TGI: 1420 nM
MDA-MB-435
  GI50: 212 nM
  TGI: 486 nM
NCI-H460 lung
  GI50: 294 nM
  TGI: 878 nM
SF-295 CNS
  GI50: 230 nM
  TGI: 670 nM
OVCAR-4 ovarian
  GI50: 321 nM
  TGI: 1150 nM
KM12 colon
  GI50: 107 nM
  TGI: 336 nM
HOP-62 NSCLC
  GI50: 407 nM
  TGI: 1510 nM
HCC-2998 colon
  GI50: 178 nM
  TGI: 351 nM
RPMI-8226 leukemia
  GI50: 34.1 nM
  TGI: 324 nM
RXF 393 renal
  GI50: 445 nM
  TGI: 968 nM
SR leukemia
  GI50: 38.6 nM
  TGI: > 100000 nM
